Assay results published in patent US5104859A, “Continuous administration of adenosine to reduce pulmonary vascular resistance” (priority 1990, dated 1992).
Entries after “also recorded” stand apart in the source; their conditions may differ.

Tests used:
[1] = system: atrio-ventricular (A-V) node; experiment: Atrio-ventricular conductance / heart block; format: in vivo, human
Text: In accordance with this invention, adenosine may be administered to human patients by continuous intravenous infusion to provide significant vasodilation and without significant heart blockage under two conditions. First, the heart blocking action of adenosine is not detected during anesthesia when the rate of administration is 0.35 milligrams of adenosine per kilogram of body weight per minute or less. Second, the heart blocking action of adenosine is not detected, even in conscious patients, at rates of administration of about 0.10 milligram of adenosine per kilogram of body weight per minute or less.

[2] = Fredholm and Sollevi; cited from earlier work
[3] = system: cardiac output; experiment: Cardiac output; format: in vivo, human; conditions: for cardiac output and heart work (words): intravenous infusion
Text: This is in contrast to other vasodilators, such as sodium nitroprusside, which may reduce cardiac output, depending on the hemodynamic status of the patient. As a consequence, adenosine can be used to stimulate cardiac output in patients with low cardiac output states, due, for example, to heart surgery, infarct and the like.
For this application, effective dosages are intermediate those used for increased graft flow and controlled hypotension. Typically the effective dose is of the order of 40-80 ug/kg/per minute. The duration of treatment can be as long as required to support the heart.

[4] = Purine levels in arterial plasma before, during and after adenosine-induced controlled hypotension (HPLC); conditions: in vivo
Experimental: Blood gases were measured with appropriate electrodes for pH, PCO2, and PO2 (Radiometer, Copenhagen). The hemoglobin concentration was determined spectrophotometrically. Samples for the determination of adenosine and its metabolites were collected as described by Sollevi et al., Acta Physiol. Scand., 120: 171-76 (1984). Adenosine and inosine were purified and analyzed by HPLC as described by Fredholm and Sollevi., J. Physiol. (London), 313: 351-67 (1981). Hypoxanthine, xanthine, and uric acid were analyzed by HPLC according to the method of Schweinsberg and Loo., J. Chromatogr., 181: 103-7 (1980). Arterial levels of dipyridamole were determined by HPLC. J. Chromatogr., 162: 98-103 (1979). Blood lactate was measured according to Tfelt-Hansen and Siggard-Andersen. Scand. Clin. Lab. Invest., 27:15-19 (1971).
Measurements and blood samplings were performed immediately before hypotension, as late as possible during hypotension (1-5 min before terminating the infusion) and approximately 30 min after the hypotensive period.
Dipyridamole (5 mg. per ml) was infused iv (0.3-0.4 mg. per kg. over a period of 5-10 min) approximately 20 minutes prior to the induction of controlled hypotension. […] (See Pedersen, J. Chromatogr., 162: 98-103 (1979).
(§1) The infusion was started at a rate of 0.01 mg. per kg. per minute, which was doubled at 15 second intervals until the desired MABP level of 40-50 mmHg was reached. […] Serum creatinine was determined before and on two consecutive days after operation. The standard ECG was recorded the day before and the day after operation.
The statistical significance (control 1 vs. adenosine and control 1 vs. control 2) was determined by Student's t test for paired data. A P value of <0.05 was regarded as significant.
The purine levels of nine of the patients were determined prior to, during and after adenosine-induced controlled hypotension.

[5] = system: central hemodynamics; experiment: Per cent change of hemodynamics: adenosine, SNP and TNG induced controlled hypotension during cerebral aneurysm surgery; format: in vivo, human
Experimental: One hour before the operation the patients were premedicated orally with diazepam (10-20 mg.) Atropine (0.5 mg) and droperidol (0.1 mg. per kg.) were given intravenously before induction of anesthesia. Induction was started with thiopental (5 mg. per kg) followed by phenoperidine (1-2 mg), a synthetic opiate with pharmacodymanics resembling fentanyl but with a longer duration of action and 1/10 of its analgesic potency.
Pancuronium bromide (0.1 mg per kg) was given to facilitate endotracheal intubation. Anesthesia was maintained by supplementary doses of phenoperidine and droperidol, as required. […] Phenoperidine was supplemented regularly to prevent the blood pressure from exceeding the preanesthetic level (approx. 1 mg/30-60 min). Controlled hyperventilation was employed with a humidified gas mixture of 60% N2 O in oxygen to maintain PaCO2 values at approximately 30 mmHg (±1.5/SEM). Mannitol (1-1.5 g. per kg) was given routinely at the start of the operation (e.g., 1-2 hours prior to the controlled hypotension). The patients were operated on in the horizontal supine position.
A 1.2-mm plastic cannula was introduced into the left radial artery to monitor systemic arterial blood pressure (MABP) and collect arterial blood. A balloon-tipped, flow-directed, quadruple lumen Swan-Ganz catheter (Model 93A-831-7.5 F, VIP) was inserted percutaneously via the left basilic vein, and its correct position in the pulmonary artery was determined by pressure tracings. The catheter was used for the monitoring of mean right atrial pressure (RAP), mean pulmonary artery pressure (PAP), and mean pulmonary capillary wedge pressure (PCWP) for the determination of cardiac output and collection of mixed venous blood and for the infusion of adenosine. Another plastic cannula was introduced percutaneously, in a retrograde direction, into the right jugular bulb for the collection of blood. The correct position was verified by x-ray.
The ECG was monitored with a standard chest (V5) lead. Heart rate was determined from the R-R interval. Blood pressures were measured by transducers placed at the midthoracic level. Cardiac output (QT) was determined in triplicate according to the thermodilution technique with a cardiac output computer (Edwards Lab, model 9510). Isotonic glucose, 10 ml at 1° C., was used as a thermal indicator. The ECG, heart rate, blood pressures, and thermodilution curves were recorded on a Grass® polygraph.
as §1
Subsequent to the tests described above, a 20 mM solution of adenosine in isotonic saline was administered to 50 surgical patients employing techniques similar to those described, except that pretreatment with dipyridamole was omitted.

[6] = system: atrio-ventricular (A-V) node; conditions: through blockage of the A-V node; cited from earlier work

## Nc1ncnc2c1ncn2[C@@H]1O[C@H](CO)[C@@H](O)[C@H]1O [adenosine]
[1]; about 0.10 mg/kg/min or less
  heart block in conscious patients: not detected
[1]; anesthesia, 0.35 mg/kg/min or less, 0.35 mg/kg
  heart block / blockage of A-V conductance during anesthesia: not detected; also recorded: does not occur; also recorded: no blockage of atrio-ventricular conductance is observed
[1]; continuous infusion
  A-V activity at vasodilating doses: significant useful vasodilating action at dosages below those at which it has significant A-V activity
[2]
  plasma half-life: 10 to 20 s
[3]; 40-80 ug/kg/per minute
  cardiac output on termination of adenosine: frequently remains above the cardiac output prior to treatment
[3]
  cardiac output and heart work (words): increase cardiac output without increasing heart work
[3]; listed as Adenosine
  cardiac output and heart work (words): significantly increasing cardiac output without significantly increasing cardiac work
[4]; human, iv
  concentration: 2450 ± 650 nM
[4]
  time for arterial adenosine levels to return to control values after termination of infusion: 3 to 9 min
[5]; Table IV, n = 10
  HR, change from control: +9 Per Cent from Control
  MABP, change from control: -43 Per Cent from Control
  PAP, change from control: +15 Per Cent from Control
  PCWP, change from control: +14 Per Cent from Control
  PVR, change from control: -15 Per Cent from Control
  QT (cardiac output), change from control: +44 Per Cent from Control
  RAP, change from control: +6 Per Cent from Control
  SVR, change from control: -61 Per Cent from Control
[5]; controlled hypotension
  oxygen tissue pressures vs nitroprusside: better preserves oxygen tissue pressures
[6]
  heart block: produce heart block
